# Data: patent US8440794B2, “Peptide sequences, their branched form and use thereof for antimicrobial applications” (Universita' Degli Studi di Siena, priority 2008, dated 2013)
# Where a SMILES comes first, the peptide text is derived from it. Bridges are numbered along the chain shown (N, C = ends). Roman numbers before positions name the chains, in order. [ ]: non-standard residue; d: D form. βAla = NCCC(=O)O
# How the values were obtained:
# E. coli W03BG0025 = assay type: cell-based, Escherichia coli; details: W03BG0025, 24 h
# Protocol: (§1) M33, […], M35 and M36 MICs were determined against strains of several bacterial species, including Gram-negative pathogens and also Staphylococcus aureus (Table 1). MICs in the micromolar range were observed against several Gram-negatives including Pseudomonas aeruginosa, Acinetobacter baumannii and most Enterobacteriaceae, with the exception of Proteus mirabilis, Serratia marcescens and Burkholderia cepacia. Activity of peptides was retained against MDR strains with various resistance mechanisms (such as extended-spectrum beta-lactamases and carbapenemases), including MDR P. aeruginosa strains from CF patients. Antimicrobial profile of M33, […] and potency were overall similar to those of polymyxin B, although M33, M34, M35 and M36 also appeared to have some activity against S. aureus (Table 1).
# [1] = assay type: in vivo; details: animals treated ip with 100 mg/Kg (not shown)
# [2] = system: P. aeruginosa SC-DMr05-04; assay type: cell-based, Pseudomonas aeruginosa; details: SC-DMr05-04, 24 h
# Protocol: as §1
# [3] = system: P. aeruginosa SC-VMr04-05; assay type: cell-based, Pseudomonas aeruginosa; details: SC-VMr04-05, 24 h
# Protocol: as §1
# [4] = system: P. aeruginosa SC-CNm03-07; assay type: cell-based, Pseudomonas aeruginosa; details: SC-CNm03-07, 24 h
# Protocol: as §1
# P. aeruginosa ATCC 27853 = assay: Bacterial load of P. aeruginosa in a mouse sepsis model; assay type: in vivo; details: P. aeruginosa 1 × 10^7 CFU/mouse ip, M33 25 mg/Kg
# Protocol: After 40 hours, all sampled body sites were apparently clear of bacteria (Table 2).
# E. coli TG1 = assay: In vivo antibacterial activity, mice infected ip with lethal amount of E. coli TG1; set-up: species or system Balb-c mice; details: E. coli TG1 1.5×10^9 CFU ip; single dose 10 mg/Kg ip 30 minutes later
# Protocol: FIG. 4. In vivo antibacterial activity of tetra-branched M33 peptide. A, Balb-c mice (20 g) were intra-peritoneally injected with a lethal amount of E. coli TG1 cells (1.5×10^9 CFU). Continuous line (Ctr) indicates mice only injected ip with bacteria and no M33. Broken line indicates mice injected ip with bacteria and a single injection of M33 peptide 10 mg/Kg 30 minutes later. B, Balb-c mice (20 g) were intra-peritoneally injected with a lethal amount of P. aeruginosa cells (ATCC 27853 1×10^7 CFU). Continuous line (Ctr) indicates mice which only received bacteria; other groups received bacteria and a single dose of M33 30 minutes later (see figure for doses of M33). C, Balb-c mice (20 g) were intra-peritoneally injected with a lethal amount of P. aeruginosa cells (multi drug resistant VR 147 clinical isolate, 1.5×10^7 CFU). Continuous line (Ctr) indicates mice which only received bacteria; broken line indicates mice which received bacteria and a single dose of M33 25 mg/Kg. D, Balb-c mice (20 g) were intra-peritoneally injected with a lethal amount of P. aeruginosa cells (ATCC 27853 1×10^7 CFU). […]
# Tetra-branched M33 peptide was analysed for its antibacterial activity in mice infected with lethal amounts of bacteria. […]
# [5] = system: LPS from P. aeruginosa serotype 10 ATCC27316; TNF-α secretion by Raw 264.7 macrophages; assay: Inhibition of LPS-induced TNF-α secretion by Raw 264.7 macrophages, LPS from P. aeruginosa; assay type: cell-based
# Protocol: FIG. 3. Inhibition of TNF-α release by neutralization of LPS. A, Raw 264.7 cells were incubated with LPS from P. aeruginosa 20 ng/ml and M33. Triangles indicate incubation with LPS and different concentrations of M33. Squares indicate incubation with M33 only. B, Raw 264.7 cells were incubated with LPS from K. pneumoniae 5 ng/ml and M33. Triangles indicate incubation of macrophages with LPS and different concentrations of M33. Squares indicate incubation of macrophages with M33 only. SD derived by means of three different experiments. 100% indicates the maximum amount of TNF-α produced by macrophages when incubated with LPS without M33. The other percentages indicate the amount of TNF-α produced by macrophages when incubated with LPS and M33, with respect to 100%. Basal levels of TNF-α were negligible. MIC of M33 is indicated by the arrow.
# Then it was examined for inhibiting LPS-induced TNF-α, secretion by Raw 264.7 macrophages.
# [6] = system: Pseudomonas aeruginosa ATCC 27853; assay type: cell-based; details: ATCC 27853, 24 h
# Protocol: as §1
# [7] = system: Escherichia coli ATCC 25922; assay type: cell-based; details: ATCC 25922, 24 h
# Protocol: as §1
# [8] = system: Serratia marcescens W03BG0003; assay type: cell-based; details: W03BG0003, 24 h
# Protocol: as §1
# [9] = system: Proteus mirabilis W03VA1017; assay type: cell-based; details: W03VA1017, 24 h
# Protocol: as §1
# [10] = system: Enterobacter cloacae W03AN0041; assay type: cell-based; details: W03AN0041, 24 h
# Protocol: as §1
# [11] = system: Klebsiella pneumoniae ATCC 13833; assay type: cell-based; details: ATCC 13833, 24 h
# Protocol: as §1
# [12] = system: Enterobacer aerogenes W03BG0067; assay type: cell-based; details: 24 h
# Protocol: as §1
# [13] = system: Staphylococcus aureus ATCC 29213; assay type: cell-based; details: ATCC 29213, 24 h
# Protocol: as §1
# [14] = system: Burkholderia cepacia ORB-99; assay type: cell-based; details: 24 h
# Protocol: as §1
# [15] = system: Acinetobacter baumannii RUH 134; assay type: cell-based; details: RUH 134, 24 h
# Protocol: as §1
# [16] = sacrificed 18 h after infection
# [17] = sacrificed 40 h after infection
compound,measurement,setting,value
"CC[C@H](C)[C@H](NC(=O)[C@H](CCCCN)NC(=O)[C@@H](N)CCCCN)C(=O)N[C@@H](CCCNC(=N)N)C(=O)N[C@H](C(=O)N[C@@H](CCCNC(=N)N)C(=O)N[C@@H](CC(C)C)C(=O)N[C@@H](CO)C(=O)N[C@@H](C)C(=O)NCCCC[C@H](NC(=O)[C@H](C)NC(=O)[C@H](CO)NC(=O)[C@H](CC(C)C)NC(=O)[C@H](CCCNC(=N)N)NC(=O)[C@@H](NC(=O)[C@H](CCCNC(=N)N)NC(=O)[C@@H](NC(=O)[C@H](CCCCN)NC(=O)[C@@H](N)CCCCN)[C@@H](C)CC)C(C)C)C(=O)NCCCC[C@H](NC(=O)[C@H](CCCCNC(=O)[C@H](C)NC(=O)[C@H](CO)NC(=O)[C@H](CC(C)C)NC(=O)[C@H](CCCNC(=N)N)NC(=O)[C@@H](NC(=O)[C@H](CCCNC(=N)N)NC(=O)[C@@H](NC(=O)[C@H](CCCCN)NC(=O)[C@@H](N)CCCCN)[C@@H](C)CC)C(C)C)NC(=O)[C@H](C)NC(=O)[C@H](CO)NC(=O)[C@H](CC(C)C)NC(=O)[C@H](CCCNC(=N)N)NC(=O)[C@@H](NC(=O)[C@H](CCCNC(=N)N)NC(=O)[C@@H](NC(=O)[C@H](CCCCN)NC(=O)[C@@H](N)CCCCN)[C@@H](C)CC)C(C)C)C(=O)NCCC(=O)O)C(C)C [M33, KKIRVRLSA] (I: H-KKIRVRLSAKK[βAla]-OH / II: H-KKIRVRLSAK / III: H-KKIRVRLSA / IV: H-KKIRVRLSA; amide I:10-IV:C, I:11-II:C, II:10-III:C; N-terminus assumed)",MIC,E. coli W03BG0025,0.7 µM
same,Apparent toxicity signs,[1],did not produce apparent toxicity signs
same,MIC,[2],1.5 µM
same,MIC,[3],3 µM
same,MIC,[4],0.3 µM
same,Bacterial count (mean ± SD) in Blood,P. aeruginosa ATCC 27853; [16],<1 × 10^2 CFU/ml
same,Bacterial count (mean ± SD) in Liver,P. aeruginosa ATCC 27853; [16],3 × 10^5 ± 6.7 × 10^5 CFU/organ
same,Bacterial count (mean ± SD) in Spleen,P. aeruginosa ATCC 27853; [16],2.4 × 10^4 ± 5.3 × 10^4 CFU/organ
same,Bacterial count (mean ± SD) in Blood,P. aeruginosa ATCC 27853; [17],<1 × 10^2 CFU/ml
same,Bacterial count (mean ± SD) in Liver,P. aeruginosa ATCC 27853; [17],<1 × 10^2 CFU/organ
same,Bacterial count (mean ± SD) in Peritoneum,P. aeruginosa ATCC 27853; [17],<1 × 10^2 CFU/ml
same,Bacterial count (mean ± SD) in Spleen,P. aeruginosa ATCC 27853; [17],<1 × 10^2 CFU/organ
same,Animals protected from signs of sepsis and death (seven-day survival),E. coli TG1,100%
same,EC50,"[5]; Raw 264.7 macrophages, LPS from P. aeruginosa serotype 10 ATCC27316, 20 ng/ml, read-out: EC50, block of TNF-α secretion",40 nM
same,Decrease of TNF-α production,"[5]; at a concentration corresponding to MIC (1.5-3 μM), LPS from P. aeruginosa",more than 90%
same,MIC,[6],1.5 µM
same,MIC,[7],1.5 µM
same,MIC,[8],>24 µM
same,MIC,[9],>24 µM
same,MIC,[10],1.5 µM
same,MIC,[11],1.5 µM
same,MIC,[12],1.5 µM
same,MIC,[13],6 µM
same,MIC,[14],>24 µM
same,MIC,[15],1.5 µM
